Assay results reported in BindingDB's records for doi:10.1016/j.bmcl.2009.03.150 (Gsk, 2009).

Assays:
Assay in all cases: Enzyme Inhibition Assay
[1] = target: Beta-secretase 1 (Homo sapiens, UniProt P56817); conditions: pH 4.5; 22 °C
[2] = target: Cathepsin D (Homo sapiens, UniProt P07339)
[3] = target: T1, Beta-secretase 2 (Homo sapiens, UniProt Q9Y5Z0)
T1 sequence (Q9Y5Z0 whole entry): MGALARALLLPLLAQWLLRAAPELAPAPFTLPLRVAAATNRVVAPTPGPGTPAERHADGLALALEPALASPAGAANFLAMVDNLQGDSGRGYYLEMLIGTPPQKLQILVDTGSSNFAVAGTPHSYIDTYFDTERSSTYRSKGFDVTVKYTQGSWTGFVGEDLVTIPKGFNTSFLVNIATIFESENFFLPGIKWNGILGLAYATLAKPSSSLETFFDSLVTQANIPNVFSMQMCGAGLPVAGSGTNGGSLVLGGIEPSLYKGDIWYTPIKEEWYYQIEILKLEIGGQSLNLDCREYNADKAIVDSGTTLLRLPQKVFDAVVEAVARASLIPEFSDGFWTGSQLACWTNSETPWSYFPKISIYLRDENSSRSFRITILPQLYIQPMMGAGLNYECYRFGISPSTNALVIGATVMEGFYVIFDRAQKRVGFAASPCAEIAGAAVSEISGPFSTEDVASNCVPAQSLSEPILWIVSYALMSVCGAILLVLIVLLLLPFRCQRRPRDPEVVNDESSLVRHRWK

Sequence of Cathepsin D (P07339 65-162 limits assumed): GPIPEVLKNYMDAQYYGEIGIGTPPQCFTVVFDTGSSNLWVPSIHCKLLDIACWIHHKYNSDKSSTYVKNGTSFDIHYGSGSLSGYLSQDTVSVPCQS
Sequence of Cathepsin D (P07339 169-412 limits assumed): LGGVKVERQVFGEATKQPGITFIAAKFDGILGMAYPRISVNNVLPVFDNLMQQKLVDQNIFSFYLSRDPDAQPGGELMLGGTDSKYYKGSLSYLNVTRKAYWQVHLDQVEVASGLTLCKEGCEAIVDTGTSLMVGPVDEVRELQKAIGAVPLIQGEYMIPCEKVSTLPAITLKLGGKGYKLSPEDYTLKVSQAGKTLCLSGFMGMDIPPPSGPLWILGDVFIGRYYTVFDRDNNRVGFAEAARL
Sequence of Beta-secretase 1 (P56817 whole entry): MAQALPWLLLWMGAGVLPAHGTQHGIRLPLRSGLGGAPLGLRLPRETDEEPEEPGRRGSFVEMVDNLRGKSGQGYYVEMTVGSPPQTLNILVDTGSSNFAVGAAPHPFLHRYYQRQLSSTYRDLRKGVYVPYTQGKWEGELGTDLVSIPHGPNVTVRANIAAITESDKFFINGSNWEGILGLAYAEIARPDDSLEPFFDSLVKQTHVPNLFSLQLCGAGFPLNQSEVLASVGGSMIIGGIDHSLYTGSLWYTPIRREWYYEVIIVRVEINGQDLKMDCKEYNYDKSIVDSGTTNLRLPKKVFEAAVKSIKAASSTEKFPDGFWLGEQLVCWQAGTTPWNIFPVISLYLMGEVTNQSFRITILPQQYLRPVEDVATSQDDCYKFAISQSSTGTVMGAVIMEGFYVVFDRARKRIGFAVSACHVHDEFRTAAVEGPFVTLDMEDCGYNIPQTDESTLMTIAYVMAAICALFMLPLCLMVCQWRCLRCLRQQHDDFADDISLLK

Compound	IC50 [1] [µM]	IC50 [2] [µM]	IC50 [3] [µM]
CCN1CCN2CCS(=O)(=O)N(C)C3C=C(C(=O)N[C@@H](Cc4ccccc4)[C@H](O)CNC4CC4)C=C1C32 (some centres not stated) [7,6,6 tricyclic sulfonamide, 19]	0.55	26.3	16.2
CCc1cn2c3c(cc(C(=O)N[C@@H](Cc4ccccc4)[C@H](O)CNCc4cccc(OC)c4)cc13)N(C)S(=O)(=O)CCC2 [8,6,5 tricyclic sulfonamide, 32]	0.028	1.57	1.86
CCN1CCN2CCS(=O)(=O)N(C)C3C=C(C(=O)N[C@@H](Cc4ccccc4)[C@H](O)CNCc4cccc(C(F)(F)F)c4)C=C1C32 (some centres not stated) [7,6,6 tricyclic sulfonamide, 10]	0.026	2.24	3.8
CCc1cn2c3c(cc(C(=O)N[C@@H](Cc4ccccc4)[C@H](O)CNC4CC4)cc13)N(C)S(=O)(=O)CCC2 [8,6,5 tricyclic sulfonamide, 33]	0.49	2.9	5.46
